Test results as given in patent US11440913B2, “Aminoimidazopyridazines as kinase inhibitors” (BRISTOL-MYERS SQUIBB COMPANY, priority 2017, dated 2022).
Structures can show the parent of a compound that is named as a salt. Where two headings read alike, the source gives them in different places.

Tests used:
[1] = molecular target: His-GST-TVMV-hRIPK1(1-324) (Homo sapiens (Human), UniProt Q13546); assay: RIPK1 HTRF Binding Assay; settings: HTRF binding, 1 h at rt; read-out: RIPK1 (IC50)
Procedure, shortened: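 HTRF probe-displacement binding: 1 nM His-GST-TVMV-hRIPK1(1-324) (baculovirus construct), 90.6 nM probe, 0.2 nM anti-GST-Tb in 20 mM HEPES, 10 mM MgCl2, 0.015% Brij-35, 4 mM DTT, 0.05 mg/mL BSA. Incubated 1 h at rt; FRET 520/495 nm ratio, inhibition relative to DMSO-only wells.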

[2] = system: MLKL phosphorylation in HT29-L23 human colorectal adenocarcinoma cells; assay: MLKL Phosphorylation High-Content Assay; type: cell-based; settings: necroptosis induced with TNFα, SMAC mimetic and Z-VAD, 6 h, read-out: pMLKL (IC50)
Procedure, shortened: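 HT29-L23 cells pretreated 30 min at 37 °C with compound (6.25 to 0.106 μM final), then necroptosis induced with TNFα 35 ng/mL, SMAC mimetic 700 nM and Z-VAD 140 nM for 6 h. Fixed cells immunostained for MLKL pS358 and imaged; IC50 and Ymax from 4-parameter logistic fit.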

His-GST-TVMV-hRIPK1(1-324), sequence (Q13546 1-324): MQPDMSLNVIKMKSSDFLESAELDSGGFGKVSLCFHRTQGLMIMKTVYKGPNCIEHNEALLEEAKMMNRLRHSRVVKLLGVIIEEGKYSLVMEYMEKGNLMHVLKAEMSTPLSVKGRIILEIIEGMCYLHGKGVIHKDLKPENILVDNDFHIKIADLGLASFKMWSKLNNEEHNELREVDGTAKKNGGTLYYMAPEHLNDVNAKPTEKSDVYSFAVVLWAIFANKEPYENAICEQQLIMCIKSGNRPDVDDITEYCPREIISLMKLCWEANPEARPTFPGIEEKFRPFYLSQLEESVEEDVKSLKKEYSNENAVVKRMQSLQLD

Row | Compound | IC50 [1] | IC50 [2] | IC50 ([2]; Homo sapiens)
1 | COc1ncc(-c2ccc3nc(NC(C)=O)cn3n2)cc1C(=O)NCc1cccc(F)c1OC(C)C1CC1 (stereo not drawn) [Example 144, N-{[2-(1-cyclopropylethoxy)-3-fluorophenyl]methyl}-5-{2-acetamidoimidazo[1,2-b]pyridazin-6-yl}-2-methoxypyridine-3-carboxamide] | 6 nM | 6 nM | –
2 | COc1ncc(-c2ccc3nc(NC(C)=O)cn3n2)cc1C(=O)NCc1cc(OC(F)(F)F)ccc1F [Example 145, 5-{2-acetamidoimidazo[1,2-b]pyridazin-6-yl}-N-{[2-fluoro-5-(trifluoro-methoxy)phenyl](deutero)methyl}-2-methoxypyridine-3-carboxamide] | 5 nM | 27 nM | –
3 | COc1ncc(-c2ccc3nc(NC(C)=O)cn3n2)cc1C(=O)NCc1cc(C(F)(F)F)ccc1Cl [Example 147, N-{[2-chloro-5-(trifluoromethyl)phenyl]methyl}-5-{2-acetamidoimidazo[1,2-b]pyridazin-6-yl}-2-methoxypyridine-3-carboxamide] | 95 nM | – | 37 nM
4 | COc1ncc(-c2ccc3nc(NC(C)=O)cn3n2)cc1C(=O)NCc1cc(F)cc(F)c1OC(C)C1CC1 (stereo not drawn) [Example 148, N-{[2-(1-cyclopropylethoxy)-3,5-difluorophenyl]methyl}-5-(2-acetamidoimidazo[1,2-b]pyridazin-6-yl}-2-methoxypyridine-3-carboxamide] | 4 nM | – | 2 nM
5 | COc1ncc(-c2ccc3nc(NC(C)=O)cn3n2)cc1C(=O)NCc1cc(OCC2CC2)ccc1F [Example 149, N-{[5-(cyclopropylmethoxy)-2-fluorophenyl]methyl}-5-{2-acetamidoimidazo[1,2-b]pyridazin-6-yl}-2-methoxypyridine-3-carboxamide] | 16 nM | – | 74 nM
6 | COc1ncc(-c2ccc3nc(NC(C)=O)cn3n2)cc1C(=O)NCc1c(F)cc(F)cc1OCC1CC1 [Example 150, N-{[2-(cyclopropylmethoxy)-4,6-difluorophenyl]methyl}-5-{2-acetamidoimidazo[1,2-b]pyridazin-6-yl}-2-methoxypyridine-3-carboxamide] | 18 nM | – | 24 nM
7 | COc1ncc(-c2ccc3nc(NC(C)=O)cn3n2)cc1C(=O)NCc1cccc(F)c1OCC1CC1 [Example 151, N-{[2-(cyclopropylmethoxy)-3-fluorophenyl]methyl}-5-{2-acetamidoimidazo[1,2-b]pyridazin-6-yl}-2-methoxypyridine-3-carboxamide, TFA] | 8 nM | 6 nM | –
8 | COc1ncc(-c2ccc3nc(NC(C)=O)cn3n2)cc1C(=O)NCc1ccc(F)cc1OC1CCOCC1 [Example 152, 5-{2-acetamidoimidazo[1,2-b]pyridazin-6-yl}-N-{[4-fluoro-2-(oxan-4-yloxy)phenyl]methyl}-2-methoxypyridine-3-carboxamide] | 49 nM | – | 69 nM
9 | [2H]C([2H])(NC(=O)c1cc(-c2ccc3nc(NC(C)=O)cn3n2)cnc1OC)c1cc(F)cc(F)c1OC1CCOCC1 [Example 153, 5-(2-acetamidoimidazo[1,2-b]pyridazin-6-yl)-N-((3,5-difluoro-2-((tetrahydro-2H-pyran-4-yl)oxy)phenyl)methyl-d2)-2-methoxynicotinamide] | 1 nM | – | 1 nM
10 | COc1ncc(-c2ccc3nc(NC(C)=O)cn3n2)cc1C(=O)NCc1cc(OC(F)(F)F)ccc1F [Example 154, 5-{2-acetamidoimidazo[1,2-b]pyridazin-6-yl}-N-{[2-fluoro-5-(trifluoromethoxy)phenyl]methyl}-2-methoxypyridine-3-carboxamide] | 13 nM | – | 15 nM
11 | COc1ncc(-c2ccc3nc(NC(C)=O)cn3n2)cc1C(=O)NCc1ccccc1OCC1CCC1 [Example 155, N-{[2-(cyclobutylmethoxy)phenyl]methyl}-5-{2-acetamidoimidazo[1,2-b]pyridazin-6-yl}-2-methoxypyridine-3-carboxamide] | 2 nM | – | 6 nM
12 | COc1ncc(-c2ccc3nc(NC(C)=O)cn3n2)cc1C(=O)NCc1c(F)cccc1OC1CCCC1 [Example 156, N-{[2-(cyclopentyloxy)-6-fluorophenyl]methyl}-5-{2-acetamidoimidazo[1,2-b]pyridazin-6-yl}-2-methoxypyridine-3-carboxamide] | 2 nM | – | 3 nM
13 | COc1ncc(-c2ccc3nc(NC(C)=O)cn3n2)cc1C(=O)NCc1ccccc1OC(F)(F)F [Example 157, 5-{2-acetamidoimidazo[1,2-b]pyridazin-6-yl}-2-methoxy-N-{[2-(trifluoro-methoxy)phenyl]methyl}pyridine-3-carboxamide] | 17 nM | – | 93 nM
14 | COc1ncc(-c2ccc3nc(NC(C)=O)cn3n2)cc1C(=O)NCc1ccccc1S(=O)(=O)C1CC1 [Example 158, N-{[2-(cyclopropanesulfonyl)phenyl]methyl}-5-{2-acetamidoimidazo[1,2-b]pyridazin-6-yl}-2-methoxypyridine-3-carboxamide] | 31 nM | – | 336 nM
15 | COc1ncc(-c2ccc3nc(NC(C)=O)cn3n2)cc1C(=O)NCc1ccccc1OC1CCCC1 [Example 159, N-{[2-(cyclopentyloxy)phenyl]methyl}-5-{2-acetamidoimidazo[1,2-b]pyridazin-6-yl}-2-methoxypyridine-3-carboxamide] | 3 nM | – | 6 nM
16 | COc1ncc(-c2ccc3nc(NC(C)=O)cn3n2)cc1C(=O)NCc1ccccc1-n1cccc1 [Example 160, 5-{2-acetamidoimidazo[1,2-b]pyridazin-6-yl}-2-methoxy-N-{[2-(1H-pyrrol-1-yl)phenyl]methyl}pyridine-3-carboxamide] | 489 nM | – | 331 nM
17 | COc1ncc(-c2ccc3nc(NC(C)=O)cn3n2)cc1C(=O)NC[C@H]1C[C@@H]1c1ccc(F)cc1 [Example 161, 5-{2-acetamidoimidazo[1,2-b]pyridazin-6-yl}-N-{[(1S,2S)-2-(4-fluorophenyl)cyclopropyl]methyl}-2-methoxypyridine-3-carboxamide] | 145 nM | – | 311 nM
18 | COc1ncc(-c2ccc3nc(NC(C)=O)cn3n2)cc1C(=O)NCc1ccccc1N1CCOCC1 [Example 162, 5-{2-acetamidoimidazo[1,2-b]pyridazin-6-yl}-2-methoxy-N-{[2-(morpholin-4-yl)phenyl]methyl}pyridine-3-carboxamide] | 64 nM | – | 140 nM
19 | COc1ncc(-c2ccc3nc(NC(C)=O)cn3n2)cc1C(=O)NCc1ncccc1OC1CCCC1 [Example 163, N-{[3-(cyclopentyloxy)pyridin-2-yl]methyl}-5-{2-acetamidoimidazo[1,2-b]pyridazin-6-yl}-2-methoxypyridine-3-carboxamide] | 12 nM | – | 17 nM
20 | COc1ncc(-c2ccc3nc(NC(C)=O)cn3n2)cc1C(=O)NCc1ccccc1OCC1CCCC1 [Example 164, N-{[2-(cyclopentylmethoxy)phenyl]methyl}-5-{2-acetamidoimidazo[1,2-b]pyridazin-6-yl}-2-methoxypyridine-3-carboxamide] | 10 nM | – | 32 nM
21 | COc1ncc(-c2ccc3nc(NC(C)=O)cn3n2)cc1C(=O)NCc1ccccc1OC(C)C [Example 165, 5-{2-acetamidoimidazo[1,2-b]pyridazin-6-yl}-2-methoxy-N-{[2-(propan-2-yloxy)phenyl]methyl}pyridine-3-carboxamide] | 4 nM | – | 11 nM
